{"source": "patent US20250025451A1", "about": "“TREATMENT OF CANCER WITH KDM4 INHIBITORS” (Celgene Corporation, priority 2021, published 2025)", "key": {"[1]": {"system": "T016P patient-derived pancreatic cancer organoid model", "test": "organoid colony formation assay, T016P", "assay_type": "cell-based, human", "protocol": "(§1) The IC50 values for Compound 1 inhibition of colony formation and viability were determined for the patient-derived colon cancer organoid models: SU60, T002C, SU62, SU34, SU103, T03SC, and SU106, patient-derived pancreatic cancer organoid models PA016SF, PA0143F, T016P, and T028P, and a patient-derived breast cancer organoid model FS5S3.\n(§2) Colony formation and viability assays were performed in multiwell plates seeded with organoids using an in vitro culture system composed of a Matrigel layer, media containing a defined set of growth factors, and co-culture with Wnt3 A-secreting mouse embryonic fibroblasts. Assays were initiated by adding either DMSO as a negative control, or an inhibitor panobinostatat 100×IC50 concentration as a positive control, or serially diluted Compound 1. The cultures were incubated for 168 or 144 hours after which the number of viable organoids in each test well was assessed respectively using one of two detection methods: CTG or staining with calcein-AM followed by imaging and colony counting. Colony count or viability of cells treated with compound 1 was expressed as a percent of the negative control. Aggregated Percent of Control values were plotted against the corresponding Compound 1 concentration and the absolute IC50 value was determined from a non-linear regression curve as the concentration where inhibition was 50% of the control."}, "[2]": {"system": "T028P patient-derived pancreatic cancer organoid model", "test": "organoid colony formation assay, T028P", "assay_type": "cell-based, human", "protocol": "as §1, §2"}, "[3]": {"system": "colorectal cancer PDX models", "test": "culture-based viability inhibition assay, colorectal cancer PDX models", "assay_type": "cell-based", "settings": "for IC50: read-out: IC50 (range over sensitive models); for Sensitive to Compound 1 (models sensitive/tested): sensitive = IC50<1 μM", "protocol": "A panel of 13 colorectal cancer PDX models and 6 colorectal cancer organoid PDX models were tested for their sensitivity to Compound 1 in culture-based viability inhibition assays. The MSI-H status of the studied colorectal cancer cell lines and their respective mutations of the MMR path genes are shown in FIG. 19."}, "[4]": {"system": "gene expression (PNUTS, ANK1, IBA57, SOWAHD, MF12-AS1, CECR1)", "test": "RNA-seq analysis of pharmacodynamic biomarkers in diffuse large B-Cell Lymphoma xenografts", "assay_type": "in vivo", "excerpt": "RNA-seq and ChIP-seq analyses were employed to identify potential clinical pharmacodynamic (PD) biomarkers as molecular indicators for monitoring the effects of treatment with Compound 1.\n[…] In the ChIP-seq analysis, 65 genes were identified to show direct KDM4C promoter occupancy."}, "[5]": {"system": "SU34 patient-derived colon cancer organoid model", "test": "organoid colony formation assay, SU34", "assay_type": "cell-based, human", "protocol": "as §1, §2"}, "[6]": {"system": "FS53 patient-derived breast cancer organoid model", "test": "organoid colony formation assay, FS53", "assay_type": "cell-based, human", "protocol": "as §1, §2"}, "[7]": {"system": "immature and mature cell markers in SU60 xenograft tumor cells", "test": "single cell gene expression analysis (RT-qPCR) of SU60 xenograft tumors", "assay_type": "in vivo", "settings": "treated vs vehicle", "excerpt": "FIG. 22 illustrates the heatmap representation of single cells gene expression analysis (RT-qPCR) from SU60 xenograft tumors treated with vehicle control or Compound 1. A) Heatmap representation of single cells gene expression analysis (RT-qPCR) from SU60 xenograft tumors treated with vehicle control or Compound 1. Gene expression levels are colored-coded with red for high expression, green low expression and gray not expressed. Three clusters of cells were identified based on shared patterns of gene expression using a gene-set of immature and mature cell markers. […] The top dendrogram clusters genes with similar expression pattern across all cells. Gene expression (in Ct values) was mean-centered at 0 and divided by 2.5 time the standard deviation. B) This graph represents the total number of vehicle-treated and compound 1 treated cells within each cluster. P-values (Fisher's exact test) are represented on top of the bars.\nVehicle control and Compound 1-treated samples were characterized by single cell transcriptional profiling with a gene-set designed to discriminate immature colon progenitor cells and more mature cell-types (Dalerba, 2011). […] Using hierarchical clustering analysis, three clusters based on expression of a subset of immature and mature cell markers were identified. […]"}, "[8]": {"settings": "MSI colorectal cancer PDX models"}, "[9]": {"settings": "MSS colorectal cancer PDX models"}, "[10]": {"settings": "in vivo at 2.5, 5, 7.5, 15 and 50 mg/kg, dose-dependent"}}, "note": "Values joined by “and” are separate entries in the source; they are usually repeats but may differ in a detail not shown here. Equal values may be shown once. Read-outs that look alike come from different tables or passages of the source."}
{"compound": "CC(C)c1ccc(N(C)c2ccc3c(c2)OCC[C@H]3CNc2cnccc2C(=O)O)cc1", "note": "[Compound 1, 3-({[(4R)-7-{methyl[4-(propan-2-yl)phenyl]amino}-3,4-dihydro-2H-1-benzopyran-4-yl]methyl}amino)pyridine-4-carboxylic acid]", "values": [{"measurement": "IC50", "setting": "[1]; Homo sapiens, T016P pancreatic carcinoma model", "value": "> 10", "unit": "µM"}, {"measurement": "IC50", "setting": "[1]; T016P human pancreatic carcinoma organoid, 144 hrs, Colony Counts", "value": "> 10", "unit": "µM"}, {"measurement": "IC50", "setting": "[2]; Homo sapiens, T028P pancreatic carcinoma model", "value": "> 10", "unit": "µM"}, {"measurement": "IC50", "setting": "[2]; T028P human pancreatic carcinoma organoid, 144 hrs, Colony Counts", "value": "> 10", "unit": "µM"}, {"measurement": "IC50", "setting": "[3]; [8]", "value": "0.001 to 0.014", "unit": "µM"}, {"measurement": "Sensitive to Compound 1 (models sensitive/tested)", "setting": "[3]; [8]", "value": "5 out of 5 and 5/5"}, {"measurement": "IC50", "setting": "[3]; [9]", "value": "0.003 to 0.27", "unit": "µM"}, {"measurement": "Sensitive to Compound 1 (models sensitive/tested)", "setting": "[3]; [9]", "value": "4 out of 8 and 4/8"}, {"measurement": "number of genes up- or downregulated ≥2-fold", "setting": "[4]; RNA-seq, 37.3 mg/kg, diffuse large B-Cell Lymphoma xenografts models", "value": 326}, {"measurement": "change of PNUTS, ANK1, and IBA57 gene expression", "setting": "[4]; [10]", "value": "downregulated"}, {"measurement": "change of SOWAHD, MF12-AS1, and CECR1 gene expression", "setting": "[4]; [10]", "value": "upregulated"}, {"measurement": "IC50", "setting": "[5]; Homo sapiens, SU34 colorectal carcinoma model", "value": "> 10", "unit": "µM"}, {"measurement": "IC50", "setting": "[5]; SU34 human colorectal carcinoma organoid, 144 hrs, Colony Counts", "value": "> 10", "unit": "µM"}, {"measurement": "IC50", "setting": "[6]; FS53 human breast carcinoma model", "value": 13.6, "unit": "µM"}, {"measurement": "IC50", "setting": "[6]; FS53 human breast carcinoma organoid, 144 hrs, Colony Counts", "value": 13.6, "unit": "µM"}, {"measurement": "change in the proportion of progenitor-like cells", "setting": "[7]; p=0.01", "value": "significant reduction"}, {"measurement": "change in number of intermediate-like and differentiated-like cells", "setting": "[7]; p=0.07", "value": "increase was not significant"}]}
